Source: patent US20060084599A1, “Compositions, methods and kits relating to notch signaling” (Maine Medical Center, priority 2003, published 2006)

Experiments:
[1] = system: NIH 3T3 stable transfectants; assay: FGF1-induced spheroid formation; type: cell-based, murine
Protocol: Clonal populations of NIH 3T3 stable transfectants were resuspended and grown in media containing 10% BCS, 10% BCS containing 1 μM PD166866, 10% BCS containing 10 ng/ml recombinant human FGF1 and 10 U/ml heparin or 10% BCS containing 10 ng/ml recombinant human FGF 1, 10 U/ml heparin and 1 μM PD 166866 as indicated in the figure legend. Approximately 2×10^5 cells were plated per well (6-well dish) and three days after plating, phase-contrast micrographs of the cells were taken.

[2] = system: NIH 3T3 cell transfectants; assay: Colony formation in soft agar (anchorage-independent growth); type: cell-based, murine
Protocol: Clonal populations of NIH 3T3 cells stably transfected with vector control, soluble Jagged1 (sJ1), constitutively active Notch1 (caN1), constitutively active Notch 2 (caN2), dominant negative Notch 1 (dnN1), dominant negative Notch 2 (dnN2), an oncogenic mutant of FGF1 engineered with the FGF4 signal peptide sequence (hst-β (FGF4):FGF1), or constitutively active oncogenic Ras construct (caRas), were plated on 6 cm tissue culture dishes with 0.5% agar in an overlay containing DMEM (Gibco BRL) media, 10% bovine calf serum (BCS; Hyclone), and 0.33% agar at 1.5×10^3 cells/dish. As indicated, some dishes were also treated with 1 μM of the FGFR1-specific inhibitor, PD166866 (Panek et al., 1998, J. Pharmacol. Exp. Ther. 286: 569-577) and/or 10 ng/ml recombinant human FGF1 and 10 U/ml heparin (Sigma). Cells were fed with 0.5 ml of media with or without FGF1 and/or the FGFR1-specific inhibitor every 3 days as indicated. Twenty days after plating, colonies were stained with p-iodonitrotetrazolium violet (Sigma) for visualization. Quantitation of colony formation was achieved by counting all p-iodonitrotetrazolium violet-stained colonies consisting of more than 4 cells under a Zeiss Stemi SVII Apo dissecting microscope.
Anchorage-Dependent and -Independent Cell Growth Assays. Approximately 3×10^4 cells were plated on fibronectin (10 μg/cm^2)-coated in 12-well cell culture dishes (Falcon) in DMEM containing 10% BCS (v/v) (Hyclone). Three wells of the individual NIH 3T3 cell transfectants were harvested every third day and cell number was quantitated using a hemocytometer. Anchorage-independent cell growth was evaluated by plating in duplicate approximately 1.7×10^3 cells in DMEM containing 0.5% (w/v) agar (Sigma) 10% (v/v) BCS into 5 cm plastic dishes (Falcon) as previously described (Small et al., 2003, J. Biol. Chem. 278:16405-16413).

[3] = system: CSL1-dependent transcription; assay: Dual luciferase reporter assay of CSL1-dependent transcription (Example 2); type: cell-based, murine
Protocol: Insert-less vector control and sJ1 NIH 3T3 cell transfectants (approximately 3×10^4) were plated on fibronectin-coated (10 μg/cm^2) cell culture dishes and the cells were transiently transfected at approximately 50% confluency with 500 ng of a luciferase construct containing four tandem copies of the CBF1 response element (Small et al., 2001, J. Biol. Chem. 276:32022-32030).
Cotransfection with 100 ng of the TK Renilla (Promega) construct was used as an internal control for transfection efficiency using Fugene 6 (Roche), according to the manufacturer's instructions. Cells were treated with or without 10, […] hours after transfection, harvested 48 hours after the transfection and luciferase/renilla activity measured using the Dual Luciferase Reporter Assay System (Promega). Each experiment was performed in triplicate.

[4] = system: caN1/CSL-activated transcription; assay: Transient transfection assay of CSL-regulated transcription (Example 1); type: cell-based, murine; details: exogenous FGF1 1-10 ng/ml; caN1 transfectants
Protocol: NIH 3T3 cells were plated onto fibronectin-coated (10 μg/cm2) 12-well tissue culture dishes and transiently transfected at approximately 80% confluency with 500 ng of a Luciferase construct activated by 4 tandem copies of the CSL (CBF1) response element (Hsieh et al. 1996, Mol. Cell. Biol. 16: 952-959), 100 ng of the TK Renilla (Promega) construct as an internal control for transfection efficiency, and 500 ng of either vector control, sJ1 or caN1 constructs using Fugene 6 (Roche) per manufacturer's instructions. For analysis of caN1 activity in the background of NIH 3T3 stable lines, vector control, caN1, sJ1 and hst-β(FGF4):FGF1 stable transfectants were plated onto fibronectin-coated (10 μg/cm2) 12-well tissue culture dishes and transiently transfected with 500 ng of the CSL-Luciferase construct, 100 ng of the TK Renilla (Promega) construct as an internal control for transfection efficiency, and 200 ng of caN1. […] The cells were harvested 48 hours after the media change and Luciferase/Renilla activity was measured using Promega's Dual-Luciferase Reporter Assay System. The efficiency of transcription was measured and normalized in relationship to the activity of pRL-TK Renilla and the activity is reported as the ratio of Luciferase/Renilla activity. […]

[5] = system: Jagged1; assay: Jagged1 expression by immunoblot; type: cell-based, murine; details: 10 ng/ml FGF1 and 10 U/ml heparin in growth media
Protocol: Vector control, SJ1, CaN1, J1, Hstβ(FGF4):FGF1 and sJ1:caN1 stable NIH 3T3 cell transfectants were plated on tissue culture dishes in either normal growth media (DMEM (Gibco BRL) media, 10% bovine calf serum (BCS; Hyclone)) or normal growth media containing 10 ng/ml recombinant FGF1 and 10 U/mi heparin. Cells were harvested at confluency (based on status of vector control cells grown in normal growth media).
Because hst-β(FGF4):FGF1 stable transfectants and the sJ1 transfectants grown in FGF 1-containing media form spheroids, all cells were harvested by scraping in the presence of the growth media dn then the cells/growth media was collected into sterile 15 ml conical tubes. Cells were pelleted by centrifugation at 800×g for 5′ at 4° C. After centrifugation, the supernatant was removed and the cell pellets were washed 3× with 1×PBS. Cells were lysed in 500 μl in 20 mM tris, pH 7.5 containing 300 mM sucrose, 60 mM KCl, 15 mM NaCl, 0.5 mM EDTA, 0.5% (v/v) Triton X-100 1 mM Phenymethyl sulfonyl flouride, 0.1% SDS, 2 μg/ml aprotinin, […], 10 μg/ml leupeptin, and 1 mM sodium orthovanadate for 15 minutes on ice. Cell lysates were pelleted and the supernatant containing soluble proteins removed.
Samples were normalized to protein concentration using the BCA Protein Assay Kit (Pierce). […]

[6] = target: FGFR1 (mouse) (UniProt P16092); assay: cell-based or functional assay
FGFR1 (mouse), sequence (P16092 22-822): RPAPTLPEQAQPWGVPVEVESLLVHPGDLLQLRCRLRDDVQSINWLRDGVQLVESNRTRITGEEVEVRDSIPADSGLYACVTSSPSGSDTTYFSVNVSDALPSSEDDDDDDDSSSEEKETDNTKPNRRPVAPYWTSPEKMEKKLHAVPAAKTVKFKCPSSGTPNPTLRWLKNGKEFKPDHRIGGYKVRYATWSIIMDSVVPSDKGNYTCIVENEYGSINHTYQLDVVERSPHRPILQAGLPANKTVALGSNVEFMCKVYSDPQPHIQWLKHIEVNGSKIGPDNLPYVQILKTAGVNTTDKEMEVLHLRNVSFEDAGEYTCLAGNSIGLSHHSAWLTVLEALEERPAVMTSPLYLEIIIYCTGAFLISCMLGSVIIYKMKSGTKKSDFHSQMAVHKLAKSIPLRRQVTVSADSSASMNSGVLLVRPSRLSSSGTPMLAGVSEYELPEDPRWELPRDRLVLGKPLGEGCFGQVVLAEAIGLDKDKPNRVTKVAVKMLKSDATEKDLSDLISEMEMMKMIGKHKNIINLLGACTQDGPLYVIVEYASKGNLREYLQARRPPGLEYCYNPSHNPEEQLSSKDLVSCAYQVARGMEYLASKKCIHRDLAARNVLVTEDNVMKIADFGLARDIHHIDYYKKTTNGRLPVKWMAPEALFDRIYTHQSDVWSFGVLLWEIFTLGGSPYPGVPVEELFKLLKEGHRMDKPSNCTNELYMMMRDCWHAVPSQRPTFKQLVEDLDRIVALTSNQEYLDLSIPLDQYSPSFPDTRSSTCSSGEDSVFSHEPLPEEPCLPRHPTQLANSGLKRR

[7] = target: Notch receptor; assay: cell-based or functional assay
[8] = system: full-length human Jagged1, in vitro translation product
[9] = system: in vitro translation product of the Delta1 transcript
[10] = target: full-length human Jagged1 on NIH 3T3 cell transfectants (human) (UniProt P78504); assay: cell-based or functional assay
full-length human Jagged1 on NIH 3T3 cell transfectants (human), sequence (P78504 34-1218 A1171G limits assumed): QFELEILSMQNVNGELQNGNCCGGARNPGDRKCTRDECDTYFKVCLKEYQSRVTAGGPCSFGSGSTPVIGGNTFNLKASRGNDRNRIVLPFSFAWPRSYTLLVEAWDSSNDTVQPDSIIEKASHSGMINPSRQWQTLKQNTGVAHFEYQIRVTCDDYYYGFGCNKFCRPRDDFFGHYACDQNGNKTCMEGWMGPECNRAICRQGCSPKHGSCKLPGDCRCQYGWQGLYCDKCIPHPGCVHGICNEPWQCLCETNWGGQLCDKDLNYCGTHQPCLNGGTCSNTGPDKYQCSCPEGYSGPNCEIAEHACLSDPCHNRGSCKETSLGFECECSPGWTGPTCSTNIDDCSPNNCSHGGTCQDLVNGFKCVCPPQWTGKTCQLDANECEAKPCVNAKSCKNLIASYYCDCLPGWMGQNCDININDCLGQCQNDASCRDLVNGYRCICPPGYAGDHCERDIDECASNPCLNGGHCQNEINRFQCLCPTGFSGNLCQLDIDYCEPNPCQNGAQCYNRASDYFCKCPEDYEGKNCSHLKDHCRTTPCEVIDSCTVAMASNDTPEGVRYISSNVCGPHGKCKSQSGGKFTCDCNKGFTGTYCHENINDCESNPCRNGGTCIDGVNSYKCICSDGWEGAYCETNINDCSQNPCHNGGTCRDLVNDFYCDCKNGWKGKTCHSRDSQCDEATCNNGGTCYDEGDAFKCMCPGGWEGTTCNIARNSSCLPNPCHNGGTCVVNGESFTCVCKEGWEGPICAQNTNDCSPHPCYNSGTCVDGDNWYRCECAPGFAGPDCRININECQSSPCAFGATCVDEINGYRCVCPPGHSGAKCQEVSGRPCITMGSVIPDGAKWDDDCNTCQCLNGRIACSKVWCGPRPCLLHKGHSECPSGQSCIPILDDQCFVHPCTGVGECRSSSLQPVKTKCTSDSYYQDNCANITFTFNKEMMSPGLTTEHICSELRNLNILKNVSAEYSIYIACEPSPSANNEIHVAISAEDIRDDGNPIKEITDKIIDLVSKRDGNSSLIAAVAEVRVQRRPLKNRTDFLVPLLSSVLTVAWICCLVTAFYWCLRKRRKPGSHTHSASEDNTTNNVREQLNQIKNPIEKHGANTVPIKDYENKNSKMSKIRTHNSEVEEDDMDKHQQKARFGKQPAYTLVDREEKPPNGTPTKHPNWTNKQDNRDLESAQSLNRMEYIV

For `COc1cc(OC)cc(-c2cc3cnc(N)nc3nc2NC(=O)NC(C)(C)C)c1` [PD166866], the “effect on FGF1-induced spheroid formation” value ([1]; 1 μM PD166866, sJ1, dnN1 and hst-β(FGF4):FGF1 transfectants) was “completely abolished FGF1-induced spheroid formation”, the “effect on anchorage-independent growth of sDl1 NIH 3T3 cell transfectants” value [2] was “completely inhibited” and the “effect on colony formation in caRas cells” value ([2]; 1 μM) was “had no effect on colony formation in the caRas cells”. The “effect on colony growth of sJ1 and dnN1 in the absence of FGF1” value ([2]; 1 μM) was “inhibited small colony growth” and the “effect on FGF1-mediated colony formation” value ([2]; 1 μM, sJ1, dnN1 and hst-β(FGF4):FGF1 transfectants) was “substantially reduced FGF1-mediated colony formation”.

In the case of “FGF1: recombinant human FGF1 (acidic FGF)”, the “CSL1-dependent transcription, level relative to control” value ([3]; thrombin on full-length Jagged1 NIH 3T3 transfectants, sJ1 expression, 10 ng/ml exogenous FGF1) is reported as “approximately 25 % of the control level”, the “spheroid formation in Notch-repressed (sJ1, dnN1) NIH 3T3 cells” value ([1]; 10 ng/ml recombinant FGF1 and 10 U/ml heparin) is reported as “formed multicellular, spheroid-like structures” and the “effect on colonies formed by sJ1 and dnN1 transfectants” value ([2]; 10 ng/ml FGF1 in growth media) is reported as “greatly exaggerated the size of the colonies”. For the same compound, the “effect on caN1/CSL transcription” value [4] was “repressed caN1/CSL transcription in a dose-dependent fashion” and the “effect on Jagged1 expression” value [5] was “increased Jagged1 expression in all stable lines examined”.

heparin [reference compound] was tested, and the “effect of heparin on thrombin-dependent repression of CSL1-dependent transcription” value ([3]; heparin 5 units/ml with thrombin 10 μg/ml, full-length Jagged1 NIH 3T3 transfectants) was “able to potentiate the thrombin-dependent repression of CSL1-dependent transcription” and the “effect of heparin on CSL1-dependent transcription” value ([3]; heparin by itself or with 10 μM TRAP) was “ineffective in altering CSL1-dependent transcription”.

“recombinant FGF1 (from UniProt P05230 16-155) (ligand)” gave a DNA synthesis ((3H)-thymidine-labelled nuclei) in Swiss 3T3 cells expressing dnFGFR1 [6] of 70 % reduction.

Work on “soluble Jagged1 (sJ1) (from UniProt P78504 34-1067) (ligand)” yielded a CSL1-dependent transcription (dual luciferase reporter) (% of the control level) [7] of 25.

With α-thrombin the “proteolytic cleavage of in vitro translated (35S)-labelled Jagged1, SDS-PAGE and autoradiography” value [8] was “cleavage of the full-length Jagged1 protein into 39 kDa and 95 kDa fragments” and the “proteolytic cleavage of the in vitro translation product” value [9] was “thrombin was unable to proteolytically modify the in vitro translation product of the Delta1 transcript”.

α-thrombin (enzyme) was tested, and the CSL1-dependent transcription (dual luciferase reporter) in full-length Jagged1 NIH 3T3 cell transfectants (% of the control level) [10] was 75.
